One assay deals with T1, KRas^G12R (Homo sapiens, UniProt P01116, G12R).
T1 construct: […]; biotin (biotinylated); purchased Accelegan Inc
The experiment in a line: KRas binding assay (TR-FRET displacement of Cy5 labelled tracer). (TR-FRET usually uses a lanthanide donor and a delayed reading to cut background.)

In another assay the target is T2, KRas^G12V (Homo sapiens, UniProt P01116, G12V).
T2 construct: […]; biotin (biotinylated); purchased Accelegan Inc
Described as above.

The target in a further assay is T3, KRas^G12D (Homo sapiens, UniProt P01116, G12D).
T3 construct: […]; biotin (biotinylated); purchased Accelegan Inc
Described as above.

In the next assay the test system is ASPC1 cells, pERK. The experiment in a line: Inhibition of KRas phosphorylation of ERK (Cisbio HTRF Advanced pERK assay). The class given is cell-based. Particulars: Homo sapiens, ASPC1, 3 h, AsPC-1 cells, read-out: Inhibition (HTRF IC50 nM) of KRas-mediated Phosphorylation of ERK, AsPC-1. How it is done: (§1) Inhibition of KRas Phosphorylation of ERK (HTRF) by Exemplary Compounds of Formula (I)
(§2) Cisbio HTRF Advanced pERK Assay Catalog #64AERPEH
(§3) • Day 1: Seed 6,000 cells/well −25 μl/well in 384-well white solid bottom plate; RPM1_10% FBS. […] To harvest cells from flask using 0.05% Trypsin/EDTA solution. Add 10 mL of media to stop trypsinizing. Pipette the cells into a conical bottom 50 mL centrifuge tube and centrifuge 5 min×1000 rpm. • 2. Re-suspend the cell pellet in media, take a cell count, and then adjust the cell density using fresh media. • 3. Seed 6,000 cells into cell culture plate with […]. The • 4. Incubate cell plate overnight in a 37° C., 5% CO2 incubator. Compound Titrations • 1. Use Tecan to complete the compound addition. Compounds start from 10 uM top, 3-fold dilution, and 10 doses. The final DMSO concentration is 0.8%. Dispensed 0.2 uM Trametinib as Min control. • 2. Incubate cell plate for 3 hrs in the incubator. Detection with Cisbio pERK HTRF Kit • 1. Dilute 1 volume of 4× lysis buffer with 3 volumes of deionized water. Then, add 100× the blocking reagent. Keep lysis buffer on the ice. • 2. At the end of the compound treatment, flick-off the media. • 3. Add 35 μL of lysis buffer per well using a Multidrop Combi. Then place on a plate agitator shaking at 300 rpm at 4° C. for 40 mins. • 4. Make up the HTRF antibody buffer. For each assay plate, mix 50 μL of d2-conjugate antibody with 950 μL of detection buffer. Similarly, mix 50 μL of Cryptate antibody with 950 μL of detection buffer. Then mix the two diluted antibodies together. • 5. Dispense 3.4 μL the antibody buffer to wells of an empty assay plate. Seal the plate and centrifuge plate 30 sec×1000 rpm. • 6. At the end of the 4° C. lysis, centrifuge the lysate plates 3 mins×1500 rpm. • 7. Use the Bravo to transfer 13.6 μL of lysate from cell culture plate to assay plate. Then incubate assay plate for 2 hrs at room temperature. • 8. At the end of incubation, read plate on the Envision after centrifuging plate 30 sec×1000 rpm.

In the next assay the test system is PSN1 cells, pERK. The assay is described as above. As to conditions: Homo sapiens, PSN1, 3 h, read-out: Inhibition (HTRF IC50 nM) of KRas-mediated Phosphorylation of ERK, PSN1. The class given is cell-based. How it is done:
as §1, §2, §3

The subject of the next assay is H727 cells, pERK. Described as above. The class given is cell-based. As to conditions: Homo sapiens, NCI-H727, 3 h, read-out: Inhibition (HTRF IC50 nM) of KRas-mediated Phosphorylation of ERK, H727. How it is done: as §1, §2, §3
The next assay relates to MKN1 cells, pERK. The description is as above. Particulars: Homo sapiens, MKN-1, 3 h, read-out: Inhibition (HTRF IC50 nM) of KRas-mediated Phosphorylation of ERK, MKN1. The class given is cell-based. The procedure:
as §1, §2, §3

In patent publication US12421253B2 (Mirati Therapeutics, Inc., priority 2020, dated 2025) one finds IC50 data, which are given here for 10 compounds.

T1 sequence (P01116 1-169 isoform P01116-2 G12R): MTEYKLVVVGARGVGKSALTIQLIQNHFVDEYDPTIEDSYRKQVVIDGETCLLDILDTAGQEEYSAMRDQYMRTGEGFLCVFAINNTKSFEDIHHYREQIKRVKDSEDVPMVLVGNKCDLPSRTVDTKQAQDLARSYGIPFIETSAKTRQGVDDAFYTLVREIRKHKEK
T3 sequence (P01116 1-169 isoform P01116-2 G12D): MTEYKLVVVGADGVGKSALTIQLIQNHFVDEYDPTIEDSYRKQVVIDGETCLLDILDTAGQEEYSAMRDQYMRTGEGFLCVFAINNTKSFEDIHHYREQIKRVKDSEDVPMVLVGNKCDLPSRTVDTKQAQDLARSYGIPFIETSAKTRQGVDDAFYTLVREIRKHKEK
T2 sequence (P01116 1-169 isoform P01116-2 G12V): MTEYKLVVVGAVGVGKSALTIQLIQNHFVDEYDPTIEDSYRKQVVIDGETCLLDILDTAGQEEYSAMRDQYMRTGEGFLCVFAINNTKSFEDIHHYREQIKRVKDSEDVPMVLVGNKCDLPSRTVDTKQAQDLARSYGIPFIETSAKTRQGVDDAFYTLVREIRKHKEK
Procedure for KRas^G12D: (§4) The ability of a compound to bind to KRas was measured using a TR-FRET displacement assay. […] After a 60-minute incubation at room temperature, the reaction was measured using a BMG LABTECH CLARIO star Plus via TR-FRET. […] The POC values were fit to a 4-parameter IC50 equation and the IC50 value reported.
Procedure for KRas^G12R: as §4
Procedure for KRas^G12V: as §4

For orientation: IC50 means the concentration needed to halve the response being measured. Turning to `Oc1cc(N2CCc3c(nc(OC[C@@]45CCCN4C[C@H](F)C5)nc3N3CC4CC(O)C(C4)C3)C2)c2c(Cl)c(F)ccc2c1` (stereo partly drawn) [Example 227, 3-(7-(8-chloro-7-fluoro-3-hydroxynaphthalen-1-yl)-2-(((2R,7aS)-2-fluorohexahydro-1H-pyrrolizin-7a-yl)methoxy)-5,6,7,8-tetrahydropyrido[3,4-d]pyrimidin-4-yl)-3-azabicyclo[3.2.1]octan-6-ol], the IC50 at KRas^G12R came out at 6 nM; on KRas^G12V, 4 nM; at KRas^G12D, 20 nM; in the assay on ASPC1 cells, pERK, 4050 nM; with PSN1 cells, pERK, 7050 nM; with H727 cells, pERK, 1300 nM. Besides, the IC50 in the assay with MKN1 cells, pERK was 524 nM.

Regarding `CCc1c(F)ccc2cc(O)cc(N3CCc4c(nc(OC[C@@]56CCCN5C[C@H](F)C6)nc4N4CCCc5nc(N)sc5C4)C3)c12` [Example 181, 4-(4-(2-amino-7,8-dihydro-4H-thiazolo[5,4-c]azepin-5(6H)-yl)-2-(((2R,7aS)-2-fluorohexahydro-1H-pyrrolizin-7a-yl)methoxy)-5,6-dihydropyrido[3,4-d]pyrimidin-7(8H)-yl)-5-ethyl-6-fluoronaphthalen-2-ol], the IC50 at KRas^G12R was not above 2 nM; on KRas^G12V, not above 2 nM; on KRas^G12D, not above 2 nM; in the assay with ASPC1 cells, pERK, 228 nM; in the assay with PSN1 cells, pERK it was not below 10000 nM; in the assay on H727 cells, pERK it was 191 nM. Also, in the assay with MKN1 cells, pERK, the IC50 worked out at 90 nM.

`CCc1c(F)ccc2cc(O)cc(N3CCc4c(nc(OC[C@@]56CCCN5C[C@H](F)C6)nc4N4C[C@H]5CC[C@@H](O)[C@H]5C4)C3)c12` [Example 185, (3aR,4R,6aS)-2-(7-(8-ethyl-7-fluoro-3-hydroxynaphthalen-1-yl)-2-(((2R,7aS)-2-fluorotetrahydro-1H-pyrrolizin-7a(5H)-yl)methoxy)-5,6,7,8-tetrahydropyrido[3,4-d]pyrimidin-4-yl)octahydrocyclopenta[c]pyrrol-4-ol]: the IC50 on KRas^G12R was 46 nM; on KRas^G12V, 52 nM; on KRas^G12D, 143 nM; with ASPC1 cells, pERK, 5120 nM; in the assay with PSN1 cells, pERK, not below 10000 nM; in the assay with H727 cells, pERK, 3720 nM. The IC50 with MKN1 cells, pERK turned out to be 1540 nM.

On to `CCc1c(F)ccc2cc(O)cc(N3CCc4c(nc(OC[C@@]56CCCN5C[C@H](F)C6)nc4N4CCCn5nc(C(=O)N(C)C)c(Cl)c5C4)C3)c12` [Example 192, 3-chloro-5-(7-(8-ethyl-7-fluoro-3-hydroxynaphthalen-1-yl)-2-(((2R,7aS)-2-fluorotetrahydro-1H-pyrrolizin-7a(5H)-yl)methoxy)-5,6,7,8-tetrahydropyrido[3,4-d]pyrimidin-4-yl)-N,N-dimethyl-5,6,7,8-tetrahydro-4H-pyrazolo[1,5-a][1,4]diazepine-2-carboxamide], for which the half-inhibitory concentration (IC50) at KRas^G12R is 3 nM; on KRas^G12V, not above 2 nM; at KRas^G12D, not above 2 nM; in the assay on ASPC1 cells, pERK, 24 nM; in the assay with PSN1 cells, pERK it was not below 10000 nM; in the assay on H727 cells, pERK it was 29 nM. Also, in the assay with MKN1 cells, pERK, the IC50 came to 11 nM.

Consider `CCc1c(F)ccc2cc(O)cc(N3CCc4c(nc(OC[C@@]56CCCN5C[C@H](F)C6)nc4N4CCCc5nn(C(=O)NC(C)C)cc5C4)C3)c12` [Example 195, 5-(7-(8-ethyl-7-fluoro-3-hydroxynaphthalen-1-yl)-2-(((2R,7aS)-2-fluorohexahydro-1H-pyrrolizin-7a-yl)methoxy)-5,6,7,8-tetrahydropyrido[3,4-d]pyrimidin-4-yl)-N-isopropyl-5,6,7,8-tetrahydropyrazolo[4,3-c]azepine-2(4H)-carboxamide], for which the concentration for half-maximal inhibition (IC50) on KRas^G12R is 20 nM; at KRas^G12V it was 8 nM; on KRas^G12D it was 17 nM; with ASPC1 cells, pERK it was 1110 nM; with PSN1 cells, pERK it was not below 10000 nM; in the assay with H727 cells, pERK it was 373 nM. For the same compound, the half-inhibitory concentration (IC50) with MKN1 cells, pERK was found to be 1520 nM.

As to `OCC1COCCN(c2nc(OC[C@@]34CCCN3C[C@H](F)C4)nc3c2CCN(c2cc(O)cc4ccc(F)c(Cl)c24)C3)C1` (stereo partly drawn) [Example 73, 5-chloro-6-fluoro-4-(2-(((2R,7aS)-2-fluorohexahydro-1H-pyrrolizin-7a-yl)methoxy)-4-(6-(hydroxymethyl)-1,4-oxazepan-4-yl)-5,6-dihydropyrido[3,4-d]pyrimidin-7(8H)-yl)naphthalen-2-ol], the IC50 at KRas^G12R was 3 nM; on KRas^G12V it was 3 nM; at KRas^G12D, 5 nM; with ASPC1 cells, pERK it was 661 nM; in the assay on PSN1 cells, pERK, 6380 nM; in the assay with H727 cells, pERK it was 871 nM. Moreover, the IC50 in the assay on MKN1 cells, pERK worked out at 85 nM.

On to `CCc1c(F)ccc2cc(O)cc(N3CCc4c(nc(OC[C@@]56CCCN5C[C@H](F)C6)nc4N4CCCn5nncc5C4)C3)c12` [Example 178, 4-(4-(7,8-dihydro-4H-[1,2,3]triazolo[1,5-a][1,4]diazepin-5(6H)-yl)-2-(((2R,7aS)-2-fluorotetrahydro-1H-pyrrolizin-7a(5H)-yl)methoxy)-5,8-dihydropyrido[3,4-d]pyrimidin-7(6H)-yl)-5-ethyl-6-fluoronaphthalen-2-ol], for which the 50% inhibitory concentration (IC50) is not above 2 nM at KRas^G12R; not above 2 nM on KRas^G12V; not above 2 nM at KRas^G12D; 17 nM with ASPC1 cells, pERK; 7620 nM in the assay with PSN1 cells, pERK; 68 nM in the assay on H727 cells, pERK. The concentration for half-maximal inhibition (IC50) with MKN1 cells, pERK was 20 nM.

Consider `CCc1c(F)ccc2cc(O)cc(N3CCc4c(nc(OC[C@@]56CCCN5C[C@H](F)C6)nc4N4C[C@H]5CC[C@H](O)[C@H]5C4)C3)c12` [Example 182, (3aR,4S,6aS)-2-(7-(8-ethyl-7-fluoro-3-hydroxynaphthalen-1-yl)-2-(((2R,7aS)-2-fluorohexahydro-1H-pyrrolizin-7a-yl)methoxy)-5,6,7,8-tetrahydropyrido[3,4-d]pyrimidin-4-yl)octahydrocyclopenta[c]pyrrol-4-ol], for which the half-maximal inhibitory concentration (IC50) is 118 nM at KRas^G12R; 75 nM on KRas^G12V; 209 nM on KRas^G12D; 3920 nM in the assay with ASPC1 cells, pERK; not below 10000 nM in the assay on PSN1 cells, pERK; 4660 nM with H727 cells, pERK. The 50% inhibitory concentration (IC50) with MKN1 cells, pERK stood at 1300 nM.

In the case of `CCc1c(F)ccc2cc(O)cc(N3CCc4c(nc(OC[C@@]56CCCN5C[C@H](F)C6)nc4N4C[C@H]5C[C@H](O)C[C@H]5C4)C3)c12` [Example 183, (3aR,5R,6aS)-2-(7-(8-ethyl-7-fluoro-3-hydroxynaphthalen-1-yl)-2-(((2R,7aS)-2-fluorohexahydro-1H-pyrrolizin-7a-yl)methoxy)-5,6,7,8-tetrahydropyrido[3,4-d]pyrimidin-4-yl)octahydrocyclopenta[c]pyrrol-5-ol], the IC50 was 23 nM on KRas^G12R; 54 nM at KRas^G12V; 150 nM on KRas^G12D; 1540 nM with ASPC1 cells, pERK; not below 10000 nM in the assay on PSN1 cells, pERK; 2920 nM with H727 cells, pERK. Further, the IC50 in the assay on MKN1 cells, pERK worked out at 498 nM.

`CCc1c(F)ccc2cc(O)cc(N3CCc4c(nc(OC[C@@]56CCCN5C[C@H](F)C6)nc4N4C[C@H]5C[C@@H](O)C[C@H]5C4)C3)c12` [Example 184, (3aR,5S,6aS)-2-(7-(8-ethyl-7-fluoro-3-hydroxynaphthalen-1-yl)-2-(((2R,7aS)-2-fluorohexahydro-1H-pyrrolizin-7a-yl)methoxy)-5,6,7,8-tetrahydropyrido[3,4-d]pyrimidin-4-yl)octahydrocyclopenta[c]pyrrol-5-ol]: the 50% inhibitory concentration (IC50) on KRas^G12R was 11 nM; on KRas^G12V, 12 nM; at KRas^G12D, 23 nM; with ASPC1 cells, pERK, 770 nM; in the assay on PSN1 cells, pERK, not below 10000 nM; in the assay with H727 cells, pERK, 796 nM. In addition, the 50% inhibitory concentration (IC50) in the assay on MKN1 cells, pERK turned out to be 652 nM.
